Reference: ChEMBL document CHEMBL4334512, “Rationally Designed, Conformationally Constrained Inverse Agonists of RORγt-Identification of a Potent, Selective Series with Biologic-Like in Vivo Efficacy” (J Med Chem, 2019)

Columns and labels:
[1] = target: T1, Oxysterols receptor LXR-alpha (Homo sapiens, UniProt Q13133); test: Activity at LXRalpha (unknown origin)
T1 sequence (Q13133 whole entry): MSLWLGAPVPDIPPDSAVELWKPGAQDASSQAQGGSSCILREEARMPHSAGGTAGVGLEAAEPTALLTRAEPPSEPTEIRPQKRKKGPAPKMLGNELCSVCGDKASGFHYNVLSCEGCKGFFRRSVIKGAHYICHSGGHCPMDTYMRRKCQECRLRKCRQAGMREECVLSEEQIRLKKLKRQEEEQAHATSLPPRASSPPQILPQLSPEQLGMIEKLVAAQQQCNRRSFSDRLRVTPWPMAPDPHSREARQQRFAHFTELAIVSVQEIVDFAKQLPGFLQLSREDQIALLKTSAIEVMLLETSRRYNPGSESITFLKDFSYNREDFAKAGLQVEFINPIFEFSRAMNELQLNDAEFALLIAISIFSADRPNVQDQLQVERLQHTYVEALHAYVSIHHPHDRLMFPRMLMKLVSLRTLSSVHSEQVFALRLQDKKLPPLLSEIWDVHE

[2] = target: T2, Nuclear receptor ROR-gamma (Homo sapiens, UniProt P51449); test: Inverse agonist activity at full length human RORgammat expressed in human Jurkat cells assessed as inhibition of constitutive receptor activity incubated for 18 hrs by Gal4-Luc reporter gene assay; format: cell-based
T2 sequence (P51449 whole entry): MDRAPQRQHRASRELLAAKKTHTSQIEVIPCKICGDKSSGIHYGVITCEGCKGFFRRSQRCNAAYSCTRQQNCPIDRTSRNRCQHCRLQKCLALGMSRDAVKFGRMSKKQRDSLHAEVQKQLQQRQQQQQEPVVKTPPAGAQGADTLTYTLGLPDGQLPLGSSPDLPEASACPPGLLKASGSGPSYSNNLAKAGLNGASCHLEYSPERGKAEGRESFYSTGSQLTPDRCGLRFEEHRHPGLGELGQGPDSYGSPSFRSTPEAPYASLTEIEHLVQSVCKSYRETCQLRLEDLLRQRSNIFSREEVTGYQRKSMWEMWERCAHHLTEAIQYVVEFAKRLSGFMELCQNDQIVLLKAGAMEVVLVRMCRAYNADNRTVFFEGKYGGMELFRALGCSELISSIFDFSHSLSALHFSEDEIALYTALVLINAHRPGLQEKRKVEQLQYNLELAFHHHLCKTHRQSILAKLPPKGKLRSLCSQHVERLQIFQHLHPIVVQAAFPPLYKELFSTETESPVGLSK

[3] = target: T3, Oxysterols receptor LXR-beta (Homo sapiens, UniProt P55055); test: Activity at LXRbeta (unknown origin)
T3 sequence (P55055 whole entry): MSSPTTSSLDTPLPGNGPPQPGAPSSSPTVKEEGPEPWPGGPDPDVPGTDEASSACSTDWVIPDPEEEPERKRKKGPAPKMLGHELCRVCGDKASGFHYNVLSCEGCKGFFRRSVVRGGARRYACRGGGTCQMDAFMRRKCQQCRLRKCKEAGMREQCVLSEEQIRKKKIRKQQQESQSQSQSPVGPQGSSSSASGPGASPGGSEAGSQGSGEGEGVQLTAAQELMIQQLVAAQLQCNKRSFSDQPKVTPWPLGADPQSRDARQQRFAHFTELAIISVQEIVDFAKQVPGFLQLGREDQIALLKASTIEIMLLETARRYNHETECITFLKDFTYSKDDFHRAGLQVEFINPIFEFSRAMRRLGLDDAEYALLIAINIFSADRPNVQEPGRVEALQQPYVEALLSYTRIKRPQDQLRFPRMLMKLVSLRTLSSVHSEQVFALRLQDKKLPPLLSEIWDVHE

[4] = Half life in rat liver microsomes; format: ADME, Microsome
[5] = target: T4, Nuclear receptor ROR-beta (Homo sapiens, UniProt Q92753); test: Activity at RORbeta (unknown origin)
T4 sequence (Q92753 whole entry): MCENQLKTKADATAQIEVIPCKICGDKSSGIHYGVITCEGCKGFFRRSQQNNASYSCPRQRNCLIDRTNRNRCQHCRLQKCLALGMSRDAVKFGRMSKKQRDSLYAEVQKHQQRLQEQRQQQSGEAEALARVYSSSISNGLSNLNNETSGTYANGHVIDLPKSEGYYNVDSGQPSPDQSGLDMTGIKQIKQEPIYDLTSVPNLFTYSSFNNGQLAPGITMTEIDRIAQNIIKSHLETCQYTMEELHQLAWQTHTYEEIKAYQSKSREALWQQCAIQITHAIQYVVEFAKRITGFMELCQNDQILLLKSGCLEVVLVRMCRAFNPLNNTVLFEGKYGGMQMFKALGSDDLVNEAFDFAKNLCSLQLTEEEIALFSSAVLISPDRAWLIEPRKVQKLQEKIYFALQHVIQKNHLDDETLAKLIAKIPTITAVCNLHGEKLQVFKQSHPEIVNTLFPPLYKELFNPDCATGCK

[6] = Half life in mouse liver microsomes; format: ADME, Microsome
[7] = target: T2, Nuclear receptor ROR-gamma; test: Inverse agonist activity at RORgammat in CD3 and CD28-stimulated human whole blood assessed as reduction in IL17A production incubated for 1 hr before CD3 and CD28 stimulation for 20 hrs by AlphaLISA method; format: tissue-based
[8] = Half life in human liver microsomes; format: ADME, Microsome
[9] = target: T5, Nuclear receptor ROR-alpha (Homo sapiens, UniProt P35398); test: Activity at RORalpha (unknown origin)
T5 sequence (P35398 whole entry): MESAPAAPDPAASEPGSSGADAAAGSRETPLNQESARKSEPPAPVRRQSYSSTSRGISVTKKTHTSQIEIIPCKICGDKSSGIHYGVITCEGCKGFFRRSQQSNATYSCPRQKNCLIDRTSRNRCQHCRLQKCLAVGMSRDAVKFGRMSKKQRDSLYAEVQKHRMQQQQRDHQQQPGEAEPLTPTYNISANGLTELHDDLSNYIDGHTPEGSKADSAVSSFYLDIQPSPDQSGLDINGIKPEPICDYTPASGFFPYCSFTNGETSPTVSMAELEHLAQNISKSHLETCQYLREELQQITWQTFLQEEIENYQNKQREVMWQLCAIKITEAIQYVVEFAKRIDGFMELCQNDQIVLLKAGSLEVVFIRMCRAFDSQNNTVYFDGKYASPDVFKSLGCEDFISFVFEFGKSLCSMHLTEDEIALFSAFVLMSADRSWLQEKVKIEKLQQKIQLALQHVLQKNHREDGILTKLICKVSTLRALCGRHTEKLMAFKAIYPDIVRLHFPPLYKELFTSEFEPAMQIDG

[10] = target: T6, Nuclear receptor subfamily 1 group I member 2 (Homo sapiens, UniProt O75469); test: Activity at PXR (unknown origin)
T6 sequence (O75469 whole entry): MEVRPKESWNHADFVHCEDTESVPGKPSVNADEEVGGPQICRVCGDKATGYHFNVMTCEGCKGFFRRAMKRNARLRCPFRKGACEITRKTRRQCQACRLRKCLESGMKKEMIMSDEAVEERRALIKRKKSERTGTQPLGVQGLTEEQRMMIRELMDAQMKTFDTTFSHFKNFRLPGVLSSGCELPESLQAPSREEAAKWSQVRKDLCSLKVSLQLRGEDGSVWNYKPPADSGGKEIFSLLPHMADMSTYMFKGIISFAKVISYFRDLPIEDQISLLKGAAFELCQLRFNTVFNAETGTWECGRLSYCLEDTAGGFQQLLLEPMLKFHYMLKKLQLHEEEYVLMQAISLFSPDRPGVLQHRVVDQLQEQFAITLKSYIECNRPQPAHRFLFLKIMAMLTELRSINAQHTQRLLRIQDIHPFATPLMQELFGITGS

[11] = Cmax in Balb/c mouse at 10 mg/kg, po; format: ADME, organism-based; set-up: dose 10 mg/kg, route oral; conditions: in vivo
[12] = Drug level in Balb/c mouse at 10 mg/kg, po after 24 hrs; format: ADME, organism-based; conditions: in vivo, read-out: Drug uptake
[13] = Unbound fraction in human serum; format: ADME, cell-free

Row | SMILES | IC50 [1] | EC50 [2] | IC50 [3] | half-life [4] | IC50 [5] | half-life [6] | EC50 [7] | half-life [8] | IC50 [9] | IC50 [10] | Cmax [11] | concentration at 24 h [12] | fraction unbound [13]
1 | CN1C[C@H]2N(C(=O)C3(O)CCS(=O)(=O)CC3)CC[C@@]2(S(=O)(=O)c2ccc(F)cc2)c2ccc(C(F)(C(F)(F)F)C(F)(F)F)cc21 | > 10 µM | 0.02 µM | > 10 µM | 1.4 h | > 10 µM | 0.433 h | 0.083 µM | > 2 h | > 10 µM | > 40 µM | – | – | 0.003
2 | CN1C[C@H]2N(C(=O)[C@H]3CC[C@H](C(=O)O)CC3)CC[C@@]2(S(=O)(=O)c2ccc(F)cc2)c2ccc(C(F)(C(F)(F)F)C(F)(F)F)cc21 | > 10 µM | – | > 10 µM | > 2 h | > 10 µM | > 2 h | – | > 2 h | > 10 µM | > 40 µM | 10000 nM | 710 nM | 0.024
3 | CCN1C[C@H]2N(C(=O)[C@H]3CC[C@H](C(=O)O)CC3)CC[C@@]2(S(=O)(=O)c2ccc(F)cc2)c2ccc(C(F)(C(F)(F)F)C(F)(F)F)cc21 | > 10 µM | – | > 10 µM | > 2 h | > 10 µM | > 2 h | – | > 2 h | > 10 µM | > 40 µM | 13000 nM | 3000 nM | 0.005
4 | O=C(O)[C@H]1CC[C@H](C(=O)N2CC[C@@]3(S(=O)(=O)c4ccccc4)c4ccc(C(F)(C(F)(F)F)C(F)(F)F)cc4CC[C@@H]23)CC1 | > 10 µM | – | > 10 µM | > 2 h | > 10 µM | > 2 h | – | > 2 h | > 10 µM | > 40 µM | 6900 nM | 740 nM | –

Further lines, results first:

Row | IC50 [1] | EC50 [2] | IC50 [3] | half-life [4] | IC50 [5] | half-life [6] | EC50 [7] | half-life [8] | IC50 [9] | IC50 [10] | Cmax [11] | concentration at 24 h [12] | fraction unbound [13] | SMILES
5 | > 10 µM | 0.015 µM | > 10 µM | > 2 h | > 10 µM | > 2 h | 0.046 µM | > 2 h | > 10 µM | > 40 µM | – | – | – | O=C(O)[C@H]1CC[C@](F)(C(=O)N2CC[C@@]3(S(=O)(=O)c4ccc(F)cc4)c4ccc(C(F)(C(F)(F)F)C(F)(F)F)cc4CC[C@@H]23)CC1
6 | > 10 µM | – | > 10 µM | > 2 h | > 10 µM | > 2 h | – | 1.65 h | > 10 µM | > 40 µM | 2500 nM | 260 nM | – | O=C(O)[C@H]1CC[C@](O)(C(=O)N2CC[C@@]3(S(=O)(=O)c4ccc(F)cc4)c4ccc(C(F)(C(F)(F)F)C(F)(F)F)cc4CC[C@@H]23)CC1
7 | > 10 µM | – | > 10 µM | > 2 h | > 10 µM | > 2 h | – | > 2 h | > 10 µM | > 40 µM | 8600 nM | 1600 nM | – | O=C(O)[C@H]1CC[C@H](C(=O)N2CC[C@@]3(S(=O)(=O)c4ccc(F)cc4)c4ccc(C(F)(C(F)(F)F)C(F)(F)F)cc4CC[C@@H]23)CC1
